The record followed here is patent US11179397B2, “Imidazopyrimidine derivatives” (Gilead Sciences, Inc., priority 2018, dated 2021).

The subject of experiment [1] is NCI-H358 cells. Put plainly: NCI-H358 3D tumor spheroid growth inhibition. The class given is cell-based. To be noted: Homo sapiens, NCI-H358, 168 h, 3D spheroids, 7 days, 3D CellTiter Glo; cellular IC50 designated EC50; read-out: H358 EC50. Summed up: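 Cells seeded at 1000/well in ultra-low-attachment plates at 37 °C, 5% CO2 to form spheroids, then incubated a further 7 days with compounds. Viability by 3D CellTiter Glo luminescence; % inhibition versus DMSO wells, with normalized cellular IC50 reported as EC50.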

For experiment [2], the target named is SHP-2 full length protein (Homo sapiens (Human), UniProt Q06124). Put plainly: SHP-2 biochemical DiFMUP pseudosubstrate-fluorogenic assay. To be noted: 0.2 nM SHP-2, 1 μM IRS-1 activator peptide, 50 μM DiFMUP; read-out: SHP2 IC50. The essentials: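 In-house recombinant full-length SHP-2 preincubated 90 min at room temperature with compounds (1:3 series, 10,000–0.005 nM), then DiFMUP substrate added at 50 μM final for 30 min more. Fluorescence normalised to DMSO wells (100%) and IC50 derived by curve fitting.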
SHP-2 full length protein, sequence (Q06124 whole entry): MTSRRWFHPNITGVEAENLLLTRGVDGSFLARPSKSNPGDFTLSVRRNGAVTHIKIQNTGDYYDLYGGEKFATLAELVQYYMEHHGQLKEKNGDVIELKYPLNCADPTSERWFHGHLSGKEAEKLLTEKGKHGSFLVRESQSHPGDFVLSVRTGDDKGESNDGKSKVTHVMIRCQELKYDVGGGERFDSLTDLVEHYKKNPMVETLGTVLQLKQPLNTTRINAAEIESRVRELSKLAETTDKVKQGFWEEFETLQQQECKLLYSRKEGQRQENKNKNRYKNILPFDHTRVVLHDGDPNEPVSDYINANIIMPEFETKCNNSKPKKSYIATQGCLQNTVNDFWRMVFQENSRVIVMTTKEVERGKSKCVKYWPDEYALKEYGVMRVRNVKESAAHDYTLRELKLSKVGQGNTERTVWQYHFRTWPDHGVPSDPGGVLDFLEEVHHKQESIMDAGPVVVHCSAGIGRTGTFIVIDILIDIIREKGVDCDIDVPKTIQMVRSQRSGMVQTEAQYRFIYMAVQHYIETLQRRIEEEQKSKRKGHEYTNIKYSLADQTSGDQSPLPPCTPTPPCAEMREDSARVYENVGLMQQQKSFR

Each structure is given as a SMILES string.

For `N[C@@H]1CCCC12CCN(c1ncc(Nc3cccc(Cl)c3Cl)c3nccn13)CC2` [Example 72, (R)-8-(8-((2,3-dichlorophenyl)amino)imidazo[1,2-c]pyrimidin-5-yl)-8-azaspiro[4.5]decan-1-amine], the EC50 in experiment [1] is more than 12500 nM. In addition, the IC50 in experiment [2] is 2000 nM.

As for `Cc1nc(N2CCC3(CCC[C@H]3N)CC2)n2ccnc2c1-c1ccc2cn[nH]c2c1` [Example 73, (R)-8-(8-(1H-indazol-6-yl)-7-methylimidazo[1,2-c]pyrimidin-5-yl)-8-azaspiro[4.5]decan-1-amine], the EC50 in experiment [1] is 550 nM. Further, in experiment [2], the IC50 was determined as 30 nM.

As to `Cc1nc(N2CCC3(CCC[C@H]3N)CC2)n2ccnc2c1-c1ccc2c(c1)OC(F)(F)O2` [Example 74, (R)-8-(8-(2,2-difluorobenzo[d][1,3]dioxol-5-yl)-7-methylimidazo[1,2-c]pyrimidin-5-yl)-8-azaspiro[4.5]decan-1-amine], the EC50 in experiment [1] is more than 12500 nM. Moreover, the IC50 in experiment [2] turned out to be 860 nM.

As to `Cc1nc(N2CCC3(CC2)C[C@@H](O)C[C@H]3N)n2ccnc2c1Sc1cccc(Cl)c1Cl` [Example 75, (2R,4R)-4-amino-8-(8-((2,3-dichlorophenyl)thio)-7-methylimidazo[1,2-c]pyrimidin-5-yl)-8-azaspiro[4.5]decan-2-ol], in experiment [1], the EC50 was determined as 48 nM. Moreover, the IC50 in experiment [2] came to 3.9 nM.

Regarding `Cc1nc(N2CCC3(CC2)CO[C@@H](C)[C@H]3N)n2ccnc2c1Sc1cccc(Cl)c1Cl` [Example 76, (3S,4S)-8-(8-((2,3-dichlorophenyl)thio)-7-methylimidazo[1,2-c]pyrimidin-5-yl)-3-methyl-2-oxa-8-azaspiro[4.5]decan-4-amine], in experiment [1], the EC50 came out at 59 nM. Further, in experiment [2], the IC50 was 3.3 nM.

In the case of `N[C@@H]1CCCC12CCN(c1ncc(Sc3ccc4cn[nH]c4c3)c3nccn13)CC2` [Example 77, (R)-8-(8-((1H-indazol-6-yl)thio)imidazo[1,2-c]pyrimidin-5-yl)-8-azaspiro[4.5]decan-1-amine], the EC50 in experiment [1] came out at 3100 nM. The IC50 in experiment [2] was 180 nM.

For `N[C@@H]1CCCC12CCN(c1ncc(Sc3ccnc4ccccc34)c3nccn13)CC2` [Example 78, (R)-8-(8-(quinolin-4-ylthio)imidazo[1,2-c]pyrimidin-5-yl)-8-azaspiro[4.5]decan-1-amine], the EC50 in experiment [1] turned out to be 95 nM. The IC50 in experiment [2] was 5.9 nM.

As for `N[C@@H]1CCCC12CCN(c1ncc(SC3CCCCC3)c3nccn13)CC2` [Example 79, (R)-8-(8-(cyclohexylthio)imidazo[1,2-c]pyrimidin-5-yl)-8-azaspiro[4.5]decan-1-amine], the EC50 in experiment [1] is more than 12500 nM. Besides, the IC50 in experiment [2] was found to be 5300 nM.

As for `Cc1nccc(Sc2cnc(N3CCC4(CCC[C@H]4N)CC3)n3ccnc23)c1C` [Example 80, (R)-8-(8-((2,3-dimethylpyridin-4-yl)thio)imidazo[1,2-c]pyrimidin-5-yl)-8-azaspiro[4.5]decan-1-amine], the EC50 in experiment [1] was determined as 270 nM. The IC50 in experiment [2] was 28 nM.

In the case of `Cc1c(Sc2cnc(N3CCC4(CCC[C@H]4N)CC3)n3ccnc23)ccnc1Cl` [Example 81, (R)-8-(8-((2-chloro-3-methylpyridin-4-yl)thio)imidazo[1,2-c]pyrimidin-5-yl)-8-azaspiro[4.5]decan-1-amine], in experiment [1], the EC50 was found to be 82 nM. Further, the IC50 in experiment [2] worked out at 7.2 nM.

For `N[C@@H]1CCCC12CCN(c1ncc(Sc3ccnc4c3CCCC4)c3nccn13)CC2` [Example 82, (R)-8-(8-((5,6,7,8-tetrahydroquinolin-4-yl)thio)imidazo[1,2-c]pyrimidin-5-yl)-8-azaspiro[4.5]decan-1-amine], the EC50 in experiment [1] was found to be 125 nM. For the same compound, in experiment [2], the IC50 came out at 11 nM.

With `N[C@@H]1CCCC12CCN(c1ncc(Sc3cccn4cnnc34)c3nccn13)CC2` [Example 83, (R)-8-(8-([1,2,4]triazolo[4,3-a]pyridin-8-ylthio)imidazo[1,2-c]pyrimidin-5-yl)-8-azaspiro[4.5]decan-1-amine], in experiment [1], the EC50 was more than 12500 nM. Also, in experiment [2], the IC50 is 150 nM.

In the case of `N[C@@H]1c2ccccc2CC12CCN(c1ncc(Sc3cccc(Cl)c3Cl)c3nccn13)CC2` [Example 85, (S)-1′-(8-((2,3-dichlorophenyl)thio)imidazo[1,2-c]pyrimidin-5-yl)-1,3-dihydrospiro[indene-2,4′-piperidin]-1-amine], the EC50 in experiment [1] stood at 11 nM. The IC50 in experiment [2] turned out to be 2.1 nM.

Consider `N[C@H]1c2ccccc2CC12CCN(c1ncc(Sc3cccc(Cl)c3Cl)c3nccn13)CC2` [Example 86, (R)-1′-(8-((2,3-dichlorophenyl)thio)imidazo[1,2-c]pyrimidin-5-yl)-1,3-dihydrospiro[indene-2,4′-piperidin]-1-amine], for which, in experiment [1], the EC50 was found to be 350 nM. The IC50 in experiment [2] came to 250 nM.

Take `N#Cc1cccc2c(Sc3cnc(N4CCC5(CCC[C@H]5N)CC4)n4ccnc34)ccnc12` [Example 88, (R)-4-((5-(1-amino-8-azaspiro[4.5]decan-8-yl)imidazo[1,2-c]pyrimidin-8-yl)thio)quinoline-8-carbonitrile]: the EC50 in experiment [1] is 160 nM. Moreover, the IC50 in experiment [2] worked out at 18 nM.

For `N[C@@H]1CCCC12CCN(c1ncc(Sc3cc(=O)[nH]c4ccccc34)c3nccn13)CC2` [Example 89, (R)-4-((5-(1-amino-8-azaspiro[4.5]decan-8-yl)imidazo[1,2-c]pyrimidin-8-yl)thio)quinolin-2(1H)-one], the EC50 in experiment [1] was more than 12500 nM. Also, in experiment [2], the IC50 is more than 10000 nM.

Turning to `N[C@@H]1CCCC12CCN(c1ncc(Sc3ccnc4ncccc34)c3nccn13)CC2` [Example 90, (R)-8-(8-((1,8-naphthyridin-4-yl)thio)imidazo[1,2-c]pyrimidin-5-yl)-8-azaspiro[4.5]decan-1-amine], in experiment [1], the EC50 was found to be 410 nM. In addition, in experiment [2], the IC50 was found to be 37 nM.

For `C[C@H](N)C1CCN(c2ncc(Sc3cccc(Cl)c3Cl)c3nccn23)CC1` [Example 91, (S)-1-(1-(8-((2,3-dichlorophenyl)thio)imidazo[1,2-c]pyrimidin-5-yl)piperidin-4-yl)ethan-1-amine], in experiment [1], the EC50 worked out at 2000 nM. The IC50 in experiment [2] came to 170 nM.

In the case of `C[C@@H]1OCC2(CCN(c3ncc(Sc4cc(=O)n(C)c5ccccc45)c4nccn34)CC2)[C@@H]1N` [Example 92, 4-((5-((3S,4S)-4-amino-3-methyl-2-oxa-8-azaspiro[4.5]decan-8-yl)imidazo[1,2-c]pyrimidin-8-yl)thio)-1-methylquinolin-2(1H)-one], the EC50 in experiment [1] is more than 12500 nM. For the same compound, in experiment [2], the IC50 is more than 10000 nM.

Consider `C[C@@H]1OCC2(CCN(c3ncc(Sc4cncc5ccccc45)c4nccn34)CC2)[C@@H]1N` [Example 93, (3S,4S)-3-methyl-8-(8-(isoquinolin-4-ylthio)imidazo[1,2-c]pyrimidin-5-yl)-2-oxa-8-azaspiro[4.5]decan-4-amine], for which the EC50 in experiment [1] is more than 12500 nM. Besides, the IC50 in experiment [2] is 480 nM.

`C[C@@H](N)C1CCN(c2ncc(Sc3cccc(Cl)c3Cl)c3nccn23)CC1` [Example 94, (R)-1-(1-(8-((2,3-dichlorophenyl)thio)imidazo[1,2-c]pyrimidin-5-yl)piperidin-4-yl)ethan-1-amine]: in experiment [1], the EC50 is 1000 nM. In addition, the IC50 in experiment [2] turned out to be 170 nM.

For the compound `C[C@@H]1OCC2(CCN(c3ncc(Sc4cccc5ncsc45)c4nccn34)CC2)[C@@H]1N` [Example 95, (3S,4S)-8-(8-(benzo[d]thiazol-7-ylthio)imidazo[1,2-c]pyrimidin-5-yl)-3-methyl-2-oxa-8-azaspiro[4.5]decan-4-amine], the EC50 in experiment [1] came to 95 nM. The IC50 in experiment [2] worked out at 5.2 nM.
